Results published in patent US20070054859A1, “Estrogen receptor-related receptor alpha (ERRalpha) and cartilage formation” (priority 2001, published 2007).

Experiments:
ERRα mRNA = ERRα mRNA levels in C5.18 cultures by semi-quantitative RT-PCR, normalised against L32; assay type: cell-based, rat; conditions: C5.18 cultures without FBS, 10^−9M E2 versus 0.01% ethanol vehicle, day 2; FIG. 8 Panel B
Procedure: Semi-quantitative RT-PCR was carried out as described in Bonnelye et al. (2001), over the proliferation/differentiation time course of C5.18 cultures treated with Dex. Days 3 and 6 were within the proliferation phase and days 11, 15 and 21 were within the differentiation stage. ERRα expression was normalised against that of the ribosomal probe L32. For comparison, mRNA levels for three chondroblast markers, type II collagen, aggrecan and link protein, were also assessed, normalised against L32.
C5.18 cells were grown in medium with (+) and without (−) fetal bovine serum (FBS). ERRα mRNA levels were determined by semi-quantitative RT-PCR and normalised against ribosomal probe L32.
Similar C5.18 cultures were grown without FBS but in the presence of estrogen (10^−9M E2) or vehicle (0.01% ethanol) (VEH) and mRNA levels were determined as above.

ERRα [1] = target: T1, ERRα (Homo sapiens, UniProt P11474); conditions: cited from earlier work
T1 sequence (P11474 1-423): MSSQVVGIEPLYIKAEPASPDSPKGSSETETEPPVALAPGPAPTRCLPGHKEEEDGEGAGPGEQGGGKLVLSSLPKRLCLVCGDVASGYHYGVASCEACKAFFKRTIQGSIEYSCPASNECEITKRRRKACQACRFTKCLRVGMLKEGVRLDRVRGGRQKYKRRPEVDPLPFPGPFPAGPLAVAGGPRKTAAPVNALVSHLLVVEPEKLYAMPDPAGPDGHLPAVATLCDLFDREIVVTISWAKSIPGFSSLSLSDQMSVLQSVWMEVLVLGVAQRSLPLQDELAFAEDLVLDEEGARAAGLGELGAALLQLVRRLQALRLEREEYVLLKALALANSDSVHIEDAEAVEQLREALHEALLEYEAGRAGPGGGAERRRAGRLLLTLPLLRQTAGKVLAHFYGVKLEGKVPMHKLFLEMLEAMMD

ERRα [2] = target: T1, ERRα; conditions: Yang et al. (1999); Tremblay et al. (2001a); cited from earlier work

Molecule	ERRα mRNA levels (ERRα mRNA)	binding to ERRα (ERRα [1])	ERRα antagonist activity (ERRα [2])
estrogen	significantly increased	does not bind	–
ClC1=C(Cl)C2(Cl)C3C(Cl)C(Cl)CC3C1(Cl)C2(Cl)Cl (stereo not drawn) [chlordane]	–	–	antagonise ERRα activity
